Results taken from the supplement of paper PMC10307832.

Experiments:
Test in all cases: relative viability (nuclei count vs DMSO), 5 days (fraction); higher = more cells survive
TPCA-1 + Lapatinib = compound: C1=CC(=CC=C1C2=CC(=C(S2)NC(=O)N)C(=O)N)F [TPCA-1] + CS(=O)(=O)CCNCc1ccc(-c2ccc3ncnc(Nc4ccc(OCc5cccc(F)c5)c(Cl)c4)c3c2)o1 [Lapatinib] (partner 2 µM)
Procedure, shortened: (§1)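 Values are medians from duplicate plates. Each reflects relative viability, defined as the nuclei count of treated wells over that of vehicle wells. Lung cancer cell lines in 1536-well plates were pin-tool dosed one day after seeding with one drug alone or with a fixed anchor-drug dose plus five library-drug doses (not always all listed) in √10 steps, then fixed, stained and imaged at 4× after 5 days.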

[1] = compound: C1/C(=C\C2=CC=CS2)/C(=O)/C(=C/C3=CC=CS3)/C1 + CS(=O)(=O)N1CCN(Cc2cc3nc(-c4cccc5[nH]ncc45)nc(N4CCOCC4)c3s2)CC1 [Pictilisib] (partner 1 µM)
Procedure, shortened: as §1

TPCA-1 + Olaparib = compound: C1=CC(=CC=C1C2=CC(=C(S2)NC(=O)N)C(=O)N)F [TPCA-1] + O=C(c1cc(Cc2n[nH]c(=O)c3ccccc23)ccc1F)N1CCN(C(=O)C2CC2)CC1 [Olaparib] (partner 8 µM)
Procedure, shortened: as §1

[2] = compound: C1/C(=C\C2=CC=CS2)/C(=O)/C(=C/C3=CC=CS3)/C1 + CC(=O)c1c(C)c2cnc(Nc3ccc(N4CCNCC4)cn3)nc2n(C2CCCC2)c1=O [Palbociclib] (partner 0.5 µM)
Procedure, shortened: as §1

Cell Line	relative viability (TPCA-1 + Lapatinib; first compound 0.04 µM)	relative viability (TPCA-1 + Lapatinib; first compound 0.1265 µM)	relative viability (TPCA-1 + Lapatinib; first compound 0.4 µM)	relative viability (TPCA-1 + Lapatinib; first compound 1.265 µM)	relative viability (TPCA-1 + Lapatinib; first compound 4 µM)	relative viability ([1]; first compound 0.2 µM)	relative viability ([1]; first compound 0.6325 µM)	relative viability ([1]; first compound 2 µM)	relative viability ([1]; first compound 6.325 µM)	relative viability ([1]; first compound 20 µM)	relative viability (TPCA-1 + Olaparib; first compound 0.04 µM)	relative viability (TPCA-1 + Olaparib; first compound 0.1265 µM)	relative viability (TPCA-1 + Olaparib; first compound 0.4 µM)	relative viability (TPCA-1 + Olaparib; first compound 1.265 µM)	relative viability (TPCA-1 + Olaparib; first compound 4 µM)	relative viability ([2]; first compound 0.2 µM)	relative viability ([2]; first compound 0.6325 µM)	relative viability ([2]; first compound 2 µM)	relative viability ([2]; first compound 6.325 µM)	relative viability ([2]; first compound 20 µM)
HOP-62	1.23	0.901	1.02	0.882	0.873	0.781	0.657	0.824	0.704	0.889	0.333	0.552	0.317	0.338	0.14	0.486	0.499	0.465	0.41	0.473
HCC-366	1.06	1.01	1.02	1.02	0.217	0.132	0.137	0.204	0.191	0.0995		0.304	0.37	0.348	0.239	0.413	0.388	0.454	0.358	0.43
NCI-H2347	1.07	0.739	0.963	0.78	0.896	0.652	0.63	0.928	0.889	0.446	0.565	0.54	0.607	0.578	0.545	0.381	0.454	0.449	0.398	0.413
LXF-289	0.914	0.927	0.807	0.831	0.726	0.814	0.772	0.821	0.699	0.797	1.09	0.94	1.12	1.06	0.735	0.648	0.615	0.567	0.577	0.56
NCI-H1793	1.05	0.669	0.837	0.929	0.354	0.409	0.202	0.291	0.31	0.352	0.982	0.735	1.1	0.821	0.546	0.343	0.368	0.351	0.306	0.315
LU99A	1.02	0.872	1.11	0.81	0.426	0.345	0.403	0.303	0.276	0.353	0.257	0.277	0.293	0.223	0.168	0.402	0.395	0.481	0.368	0.38
PC-14	0.336	0.327	0.321	0.394	0.299	0.815	0.654	0.69	0.755	0.737	0.295	0.324	0.308	0.327	0.341	0.668	0.563	0.523	0.435	0.501
NCI-H2085	0.825	0.732	0.889	0.7	0.646	0.449	0.487	0.534	0.405	0.432		0.74	0.738	0.839	0.683	0.482	0.5	0.484	0.46	0.495
